US20240287080A1 (IDEAYA Biosciences Inc., priority 2021, published 2024)

Biological target: T1, Pol theta (1-899) (Homo sapiens, UniProt O75417)
T1 construct: Pol theta (1-899) (5 nM) in assay buffer
Assay: Pol theta ATPase activity, NADH oxidation-coupled enzymatic assay (ATPase NADH coupling: Standard Screening: hPolQ)
Assay type: biochemical
Conditions: Pol theta (1-899) 5 nM, NADH oxidation-coupled ATPase assay; compounds of Table 3
How it was run: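 NADH-coupled ATPase readout: 5 nM Pol theta (1-899) preincubated 15 min with 10-point compound series in Tris pH 7.80, KCl, MgCl2, DTT, BSA, Tween, glycerol, then 100 μM ATP, 300 nM 50-mer poly-dT ssDNA, NADH, PEP, LDH and PK added (stock levels). A340 followed 60 min; slopes fit four-parameter for IC50.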

T1 sequence (O75417 1-899): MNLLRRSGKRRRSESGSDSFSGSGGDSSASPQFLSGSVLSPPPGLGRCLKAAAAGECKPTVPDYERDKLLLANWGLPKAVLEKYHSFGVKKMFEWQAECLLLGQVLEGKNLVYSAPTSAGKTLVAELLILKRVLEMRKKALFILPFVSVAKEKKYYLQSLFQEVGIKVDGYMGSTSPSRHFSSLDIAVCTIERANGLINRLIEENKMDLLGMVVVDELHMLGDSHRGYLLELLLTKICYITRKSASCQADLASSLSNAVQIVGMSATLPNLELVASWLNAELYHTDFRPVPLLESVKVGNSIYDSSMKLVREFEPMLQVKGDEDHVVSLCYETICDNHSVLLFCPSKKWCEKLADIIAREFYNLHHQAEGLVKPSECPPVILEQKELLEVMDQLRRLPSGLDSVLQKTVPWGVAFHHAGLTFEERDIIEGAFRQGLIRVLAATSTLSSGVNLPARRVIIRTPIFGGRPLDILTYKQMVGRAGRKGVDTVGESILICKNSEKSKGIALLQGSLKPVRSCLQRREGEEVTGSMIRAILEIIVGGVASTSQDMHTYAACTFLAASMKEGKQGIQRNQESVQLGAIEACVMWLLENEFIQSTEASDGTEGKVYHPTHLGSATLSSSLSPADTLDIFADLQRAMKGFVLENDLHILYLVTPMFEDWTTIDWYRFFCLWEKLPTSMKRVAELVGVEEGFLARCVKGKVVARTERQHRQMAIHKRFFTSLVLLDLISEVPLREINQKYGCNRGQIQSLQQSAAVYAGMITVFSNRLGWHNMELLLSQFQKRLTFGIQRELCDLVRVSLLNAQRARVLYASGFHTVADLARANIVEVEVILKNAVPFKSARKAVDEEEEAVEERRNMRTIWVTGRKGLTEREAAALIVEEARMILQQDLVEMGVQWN

COc1nnc(NC(=O)c2cnc(C)cc2-c2ccoc2)s1 [Example 390, 4-(furan-3-yl)-N-(5-methoxy-1,3,4-thiadiazol-2-yl)-6-methylpyridine-3-carboxamide]
IC50: 1000 to 10000 nM

COc1nnc(NC(=O)c2cnc(C)cc2-c2ccco2)s1 [Example 391, 4-(furan-2-yl)-N-(5-methoxy-1,3,4-thiadiazol-2-yl)-6-methylpyridine-3-carboxamide]
IC50: 1000 to 10000 nM

COc1nnc(NC(=O)c2cnc(C)cc2-c2ccccc2C(C)C)s1 [Example 392, N-(5-methoxy-1,3,4-thiadiazol-2-yl)-6-methyl-4-[2-(propan-2-yl)phenyl]pyridine-3-carboxamide]
IC50: 1000 to 10000 nM

COc1nnc(NC(=O)c2cnc(C)cc2-c2cnc3ccccc3c2)s1 [Example 394, N-(5-methoxy-1,3,4-thiadiazol-2-yl)-6-methyl-4-(quinolin-3-yl)pyridine-3-carboxamide]
IC50: 1000 to 10000 nM

COc1nnc(NC(=O)c2cnc(C)cc2-c2cnn3c2CCCC3)s1 [Example 395, N-(5-methoxy-1,3,4-thiadiazol-2-yl)-6-methyl-4-{4H,5H,6H,7H-pyrazolo[1,5-a]pyridin-3-yl}pyridine-3-carboxamide]
IC50: 1000 to 10000 nM

COc1nnc(NC(=O)c2cnc(C)cc2-c2cccc(S(=O)(=O)N(C)C)c2)s1 [Example 396, 4-[3-(dimethylsulfamoyl)phenyl]-N-(5-methoxy-1,3,4-thiadiazol-2-yl)-6-methylpyridine-3-carboxamide]
IC50: 1000 to 10000 nM

COc1nnc(NC(=O)c2cnc(C)cc2-c2cccc(S(C)(=O)=O)c2)s1 [Example 397, 4-(3-methanesulfonylphenyl)-N-(5-methoxy-1,3,4-thiadiazol-2-yl)-6-methylpyridine-3-carboxamide]
IC50: 500 to 1000 nM

COc1nnc(NC(=O)c2cnc(C)cc2-c2cccc3ccccc23)s1 [Example 398, N-(5-methoxy-1,3,4-thiadiazol-2-yl)-6-methyl-4-(naphthalen-1-yl)pyridine-3-carboxamide]
IC50: ≤ 200 nM

COc1nnc(NC(=O)c2cnc(C)cc2-c2cnc3[nH]ccc3c2)s1 [Example 399, N-(5-methoxy-1,3,4-thiadiazol-2-yl)-6-methyl-4-{1H-pyrrolo[2,3-b]pyridin-5-yl}pyridine-3-carboxamide]
IC50: 1000 to 10000 nM

COc1nnc(NC(=O)c2cnc(C)cc2-c2cccc(NS(C)(=O)=O)c2)s1 [Example 400, 4-(3-methanesulfonamidophenyl)-N-(5-methoxy-1,3,4-thiadiazol-2-yl)-6-methylpyridine-3-carboxamide]
IC50: 1000 to 10000 nM

CNS(=O)(=O)c1cccc(-c2cc(C)ncc2C(=O)Nc2nnc(OC)s2)c1 [Example 401, N-(5-methoxy-1,3,4-thiadiazol-2-yl)-6-methyl-4-[3-(methylsulfamoyl)phenyl]pyridine-3-carboxamide]
IC50: 1000 to 10000 nM

CNC(=O)c1ccc(-c2cc(C)ncc2C(=O)Nc2nnc(OC)s2)cc1 [Example 402, N-(5-methoxy-1,3,4-thiadiazol-2-yl)-6-methyl-4-[4-(methylcarbamoyl)phenyl]pyridine-3-carboxamide]
IC50: 1000 to 10000 nM

COc1nnc(NC(=O)c2cnc(C)cc2-c2cncc(C(=O)NC3CC3)c2)s1 [Example 403, N5-cyclopropyl-N3′-(5-methoxy-1,3,4-thiadiazol-2-yl)-6′-methyl-[3,4′-bipyridine]-3′,5-dicarboxamide]
IC50: 1000 to 10000 nM

COc1nnc(NC(=O)c2cnc(C)cc2-c2ccnc(C)c2)s1 [Example 404, N-(5-methoxy-1,3,4-thiadiazol-2-yl)-2′,6-dimethyl-[4,4′-bipyridine]-3-carboxamide]
IC50: 1000 to 10000 nM

COc1nnc(NC(=O)c2cnc(C)cc2-c2cc(C)cc(F)c2)s1 [Example 405, 4-(3-fluoro-5-methylphenyl)-N-(5-methoxy-1,3,4-thiadiazol-2-yl)-6-methylpyridine-3-carboxamide]
IC50: 200 to 500 nM

COc1nnc(NC(=O)c2cnc(C)cc2-c2ccncc2C)s1 [Example 406, N-(5-methoxy-1,3,4-thiadiazol-2-yl)-3′,6-dimethyl-[4,4′-bipyridine]-3-carboxamide]
IC50: 1000 to 10000 nM

COc1ccc(-c2cc(C)ncc2C(=O)Nc2nnc(OC)s2)cn1 [Example 407, 6-methoxy-N-(5-methoxy-1,3,4-thiadiazol-2-yl)-6′-methyl-[3,4′-bipyridine]-3′-carboxamide]
IC50: 1000 to 10000 nM

COc1nnc(NC(=O)c2cnc(C)cc2-c2cccc(OC(F)(F)F)c2)s1 [Example 408, N-(5-methoxy-1,3,4-thiadiazol-2-yl)-6-methyl-4-[3-(trifluoromethoxy)phenyl]pyridine-3-carboxamide]
IC50: 500 to 1000 nM

COc1nnc(NC(=O)c2cnc(C)cc2-c2ccc3c(c2)OCO3)s1 [Example 409, 4-(2H-1,3-benzodioxol-5-yl)-N-(5-methoxy-1,3,4-thiadiazol-2-yl)-6-methylpyridine-3-carboxamide]
IC50: 500 to 1000 nM

COc1nnc(NC(=O)c2cnc(C)cc2-c2cccc(CN(C)C)c2)s1 [Example 410, 4-(3-((dimethylamino)methyl)phenyl)-N-(5-methoxy-1,3,4-thiadiazol-2-yl)-6 methylnicotinamide]
IC50: 1000 to 10000 nM

COc1nnc(NC(=O)c2cnc(C)cc2-c2cccc(OC)c2C#N)s1 [Example 411, 4-(2-cyano-3-methoxyphenyl)-N-(5-methoxy-1,3,4-thiadiazol-2-yl)-6-methylpyridine-3-carboxamide]
IC50: 1000 to 10000 nM

COc1nnc(NC(=O)c2cnc(C)cc2-c2cccc(N(C)C)c2)s1 [Example 412, 4-[3-(dimethylamino)phenyl]-N-(5-methoxy-1,3,4-thiadiazol-2-yl)-6-methylpyridine-3-carboxamide]
IC50: 1000 to 10000 nM

COc1nnc(NC(=O)c2cnc(C)cc2-c2cnc(C#N)cc2C)s1 [Example 413, 6-cyano-N-(5-methoxy-1,3,4-thiadiazol-2-yl)-4,6′-dimethyl-[3,4′-bipyridine]-3′-carboxamide]
IC50: 1000 to 10000 nM

COc1nnc(NC(=O)c2cnc(C)cc2-c2cccc(C)c2F)s1 [Example 414, 4-(2-fluoro-3-methylphenyl)-N-(5-methoxy-1,3,4-thiadiazol-2-yl)-6-methylpyridine-3-carboxamide]
IC50: ≤ 200 nM

COc1nnc(NC(=O)c2cnc(C)cc2-c2cccc(N3CCOCC3)c2)s1 [Example 415, N-(5-methoxy-1,3,4-thiadiazol-2-yl)-6-methyl-4-[3-(morpholin-4-yl)phenyl]pyridine-3-carboxamide]
IC50: 1000 to 10000 nM

COc1nnc(NC(=O)c2cnc(C)cc2-c2ccc3c(c2)COC3=O)s1 [Example 416, N-(5-methoxy-1,3,4-thiadiazol-2-yl)-6-methyl-4-(1-oxo-1,3-dihydro-2-benzofuran-5-yl)pyridine-3-carboxamide]
IC50: 1000 to 10000 nM

COc1nnc(NC(=O)c2cnc(C)cc2-c2ccc3cn(C)nc3c2)s1 [Example 417, N-(5-methoxy-1,3,4-thiadiazol-2-yl)-6-methyl-4-(2-methyl-2H-indazol-6-yl)nicotinamide]
IC50: 1000 to 10000 nM

COc1nnc(NC(=O)c2cnc(C)cc2-c2ccc3c(c2)OCCN3C)s1 [Example 418, N-(5-methoxy-1,3,4-thiadiazol-2-yl)-6-methyl-4-(4-methyl-3,4-dihydro-2H-1,4-benzoxazin-7-yl)pyridine-3-carboxamide]
IC50: 1000 to 10000 nM

COc1nnc(NC(=O)c2cnc(C)cc2-c2ccc(OC)c(F)c2)s1 [Example 419, 4-(3-fluoro-4-methoxyphenyl)-N-(5-methoxy-1,3,4-thiadiazol-2-yl)-6-methylpyridine-3-carboxamide]
IC50: 1000 to 10000 nM

COc1nnc(NC(=O)c2cnc(C)cc2-c2cc(C)nn2C)s1 [Example 420, 4-(1,3-dimethyl-1H-pyrazol-5-yl)-N-(5-methoxy-1,3,4-thiadiazol-2-yl)-6-methylpyridine-3-carboxamide]
IC50: 1000 to 10000 nM

COc1nnc(NC(=O)c2cnc(C)cc2-c2cccc(F)c2)s1 [Example 421, 4-(3-fluorophenyl)-N-(5-methoxy-1,3,4-thiadiazol-2-yl)-6-methylpyridine-3-carboxamide]
IC50: 500 to 1000 nM

COc1cc(C)cc(-c2cc(C)ncc2C(=O)Nc2nnc(OC)s2)c1 [Example 422, N-(5-methoxy-1,3,4-thiadiazol-2-yl)-4-(3-methoxy-5-methylphenyl)-6-methylpyridine-3-carboxamide]
IC50: 500 to 1000 nM

COc1nnc(NC(=O)c2cnc(C)cc2-c2cccc3sccc23)s1 [Example 423, 4-(1-benzothiophen-4-yl)-N-(5-methoxy-1,3,4-thiadiazol-2-yl)-6-methylpyridine-3-carboxamide]
IC50: 200 to 500 nM

COc1nnc(NC(=O)c2cnc(C)cc2-c2cnc(C(F)(F)F)cc2C)s1 [Example 424, N-(5-methoxy-1,3,4-thiadiazol-2-yl)-4,6′-dimethyl-6-(trifluoromethyl)-[3,4′-bipyridine]-3′-carboxamide]
IC50: 1000 to 10000 nM

COc1nnc(NC(=O)c2cnc(C)cc2-c2csc3cnccc23)s1 [Example 425, N-(5-methoxy-1,3,4-thiadiazol-2-yl)-6-methyl-4-{thieno[2,3-c]pyridin-3-yl}pyridine-3-carboxamide]
IC50: 500 to 1000 nM

COc1nnc(NC(=O)c2cnc(C)cc2-c2cnc(N3CCOCC3)nc2)s1 [Example 427, N-(5-methoxy-1,3,4-thiadiazol-2-yl)-6-methyl-4-[2-(morpholin-4-yl)pyrimidin-5-yl]pyridine-3-carboxamide]
IC50: 1000 to 10000 nM

COc1nnc(NC(=O)c2cnc(C)cc2-c2ccc(F)cc2C)s1 [Example 428, 4-(4-fluoro-2-methylphenyl)-N-(5-methoxy-1,3,4-thiadiazol-2-yl)-6-methylpyridine-3-carboxamide]
IC50: 500 to 1000 nM

COCCOc1cccc(-c2cc(C)ncc2C(=O)Nc2nnc(OC)s2)c1 [Example 429, N-(5-methoxy-1,3,4-thiadiazol-2-yl)-4-[3-(2-methoxyethoxy)phenyl]-6-methylpyridine-3-carboxamide]
IC50: 1000 to 10000 nM
